US20220356176A1, “Kv11.1-3.1 INHIBITING METHODS AND COMPOSITIONS” (The Johns Hopkins University, priority 2019, published 2022)
Where a name gives a salt, the structure may show the parent alone.

biological target: T1, KCNH2-3.1 (Kv11.1-3.1 containing potassium channel; hERG 3.1) (Homo sapiens, UniProt Q12809); experiment: KCNH2-3.1 inhibition ion (thallium) flux assay, FluxOR; format: cell-based; settings: U2OS cells transduced with hERG 3.1 Bacmam virus, 5 minutes compound incubation, read-out: Activity range (IC50)
T1 construct: expressed in transfected cells; host or cells: U2OS cells transduced with hERG 3.1 BacMam virus
Description: The ability of the presently disclosed compounds to inhibit the activity of the ion channel produced from the KCNH2-3.1 transcript may be determined by methods known to those in the art for measuring ion channel inhibition. One method for measuring ion channel activity uses a thallium flux assay (Titus et al., 2009; FluxOR™ kit from Life Technologies). This assay measures the passage of thallium through the channel as indicated by a thallium sensitive dye loaded into the cell.
The ability of compounds to inhibit the activity of KCNH2-3.1 was determined by an ion flux assay as described (Titus et al, 2009, which is incorporated herein by reference). U2OS cells were cultured in media containing DMEM, 10% FBS, and Penicillin/Streptomycin. Cells were grown to 90% confluency then washed with PBS and pelleted. Cells were resuspended in DMEM containing 2% FBS and incubated with hERG or hERG 3.1 Bacmam virus for 4 hours at room temperature in the dark. Cells were plated onto clear-bottom PDL coated 1536 well plates and allowed to grow 16-20 hours at 37° C. FluxOr loading buffer containing 10mM Red Dye #40 was added to each well and incubated for 45 minutes. Plates were loaded and analyzed in Hamamatsu FDSS (7000) using a two-addition protocol. In the first addition step of the assay, compounds to be tested and the cell compound mixture were incubated together for 5 minutes before addition of FluxOr stimulus buffer as the second addition step. Channel activity was detected and analyzed via the slope of fluorescence intensities versus the time of first 30 s after compound addition was calculated from the kinetic results. The signal-to-basal ratio was calculated as the slope of DMSO solvent controls in the stimulated group divided by the slope of an unstimulated group. The concentration responses of compound inhibition from the experiments were analyzed with Prism software (GraphPad, San Diego, Calif., USA).
As the data herein indicate, a broad variety of compounds of formula (I), formula (II), or formula (III) were found effective as KCNH2-3.1 containing potassium channel inhibitors at low concentrations. […] In the Table 1 below, a single plus (+) is associated with an IC50 of from about 2-10 μM; two plus signs (++) is associated with an IC50 from about 500 nM to about 2 μM; and three plus signs (+++) is associated with an IC50 less than about 500 nM.

T1 sequence (Q12809 1-1063 isoform Q12809-7): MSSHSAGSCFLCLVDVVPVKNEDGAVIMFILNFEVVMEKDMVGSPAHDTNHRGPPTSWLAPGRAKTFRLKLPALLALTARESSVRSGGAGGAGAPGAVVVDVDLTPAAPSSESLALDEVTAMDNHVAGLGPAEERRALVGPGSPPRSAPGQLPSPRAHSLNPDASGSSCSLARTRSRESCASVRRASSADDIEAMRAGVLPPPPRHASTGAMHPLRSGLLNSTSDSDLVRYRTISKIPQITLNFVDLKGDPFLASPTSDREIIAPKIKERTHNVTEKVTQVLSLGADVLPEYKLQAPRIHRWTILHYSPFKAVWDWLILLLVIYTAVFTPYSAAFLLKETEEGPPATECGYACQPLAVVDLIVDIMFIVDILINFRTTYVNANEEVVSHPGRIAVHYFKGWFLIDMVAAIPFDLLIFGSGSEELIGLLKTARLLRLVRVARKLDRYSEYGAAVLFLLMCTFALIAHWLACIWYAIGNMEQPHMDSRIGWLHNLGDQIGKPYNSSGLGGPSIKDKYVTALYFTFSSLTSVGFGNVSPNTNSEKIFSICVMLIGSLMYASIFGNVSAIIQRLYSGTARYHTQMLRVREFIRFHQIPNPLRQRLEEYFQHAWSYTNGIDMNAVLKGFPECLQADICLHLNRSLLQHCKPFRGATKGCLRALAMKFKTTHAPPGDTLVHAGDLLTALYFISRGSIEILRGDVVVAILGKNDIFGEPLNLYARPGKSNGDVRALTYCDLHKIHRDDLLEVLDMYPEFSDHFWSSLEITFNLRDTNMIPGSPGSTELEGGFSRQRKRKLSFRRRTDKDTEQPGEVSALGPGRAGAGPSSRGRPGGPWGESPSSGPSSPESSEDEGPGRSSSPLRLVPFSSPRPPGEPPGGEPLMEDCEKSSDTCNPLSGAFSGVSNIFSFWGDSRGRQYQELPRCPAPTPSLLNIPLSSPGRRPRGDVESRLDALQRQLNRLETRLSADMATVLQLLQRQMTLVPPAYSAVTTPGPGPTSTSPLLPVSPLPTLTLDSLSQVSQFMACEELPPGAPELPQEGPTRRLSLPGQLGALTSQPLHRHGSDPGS

Row | SMILES | IC50
1 | CC1CC(c2ccccc2)CCN1CC(=O)Nc1ccc(N2CCCCCC2)cc1 (mixture of isomers) [Example 19, N-[4-(azepan-1-yl)phenyl]-2-(2-methyl-4-phenyl-1-piperidyl)acetamide] | 500 to 2000 nM
2 | O=C(CN1CCCCC1)Nc1ccc(N2CCCOCC2)cc1 [Example 1, N-[4-(1,4-oxazepan-4-yl)phenyl]-2-(1-piperidyl)acetamide hydrochloride] | 2000 to 10000 nM
3 | CC1CCN(c2ccc(NC(=O)CN3CC4CCC3CC4)cn2)CC1 [Example 3, 2-(8-azabicyclo[3.2.1]octan-8-yl)-N-16-(4-methyl-1-piperidyl)-3-pyridyljacetamide] | 500 to 2000 nM
4 | O=C(CN1CCCOCC1)Nc1ccc(N2CCCCCC2)cc1 [Example 7, N-[4-(azepan-1-yl)phenyl]-2-(1,4-oxazepan-4-yl)acetamide hydrochloride] | 2000 to 10000 nM
5 | O=C(CN1CCCC(F)C1)Nc1ccc(N2CCCCCC2)cc1 (stereo not shown) [Example 8, N-[4-(azepan-1-yl)phenyl]-2-(3-fluoro-1-piperidyl)acettamide] | 500 to 2000 nM
6 | O=C(CN1CCCCC1C(F)(F)F)Nc1ccc(N2CCCCCC2)cc1 (stereo not shown) [Example 9, N-[4-(azepan-1-yl)pheny]-2-[2-(trifluoromethyl)-1-piperidyl]acetamide] | 500 to 2000 nM
7 | O=C(CN1CCC(CO)CC1)Nc1ccc(N2CCCCCC2)cc1 [Example 10, N-[4-(azepan-1-yl)phenyl]-2-[4-(hydroxymethyl)-1-piperidyl]acetamide] | 2000 to 10000 nM
8 | O=C(CN1CCCCC1CO)Nc1ccc(N2CCCCCC2)cc1 (stereo not shown) [Example 11, N-[4-(azepan-1-yl)phenyl]-2-[2-(hydroxymethyl)-1-piperidyl]acetamide] | 2000 to 10000 nM
9 | CC(C)(O)C1CCN(CC(=O)Nc2ccc(N3CCCCCC3)cc2)CC1 [Example 12, N-[4-(azepan-1-yl)phenyl]-2-[4-(1-hydroxy-1-methyl-ethyl)-1-piperidyl]acetamide] | 2000 to 10000 nM
10 | O=C(CN1CCC(O)(c2ccc(Cl)cc2)CC1)Nc1ccc(N2CCCCCC2)cc1 [Example 13, N-[4-(azepan-1-yl)phenyl]-2-[4-(4-chlorophenyl)-4-hydroxy-1-piperidyl]acetamide] | < 500 nM
11 | O=C(CN1CCCC1)Nc1ccc(N2CCCCCC2)cc1 [Example 14, N-[4-(azepan-1-yl)phenyl]-2-pyrrolidin-1-yl-acetamide hydrochloride] | 2000 to 10000 nM
12 | CC1CCCN(CC(=O)Nc2ccc(N3CCCCCC3)cc2)C1 (stereo not shown) [Example 15] | 2000 to 10000 nM
13 | O=C(CN1CCCCC1c1ccc(Cl)cc1)Nc1ccc(N2CCCCCC2)cc1 (stereo not shown) [Example 16, N-[4-(azepan-1-yl)phenyl]-2-[2-(4-chlorophenyl)-1-piperidyl]acetamide] | 500 to 2000 nM
14 | O=C(CN1CCCC(c2cccc(Cl)c2)C1)Nc1ccc(N2CCCCCC2)cc1 (stereo not shown) [Example 17, N-[4-(azepan-1-yl)phenyl]-2-[3-(3-chlorophenyl)-1-piperidyl]acetamide] | < 500 nM
15 | N#Cc1cccc(C2CCN(CC(=O)Nc3ccc(N4CCCCCC4)cc3)CC2)c1 [Example 18, N-[4-(azepan-1-yl)phenyl]-2-[4-(3-cyanophenyl)-1-piperidyl]acetamide] | < 500 nM
16 | O=C(CN1CCC(c2ccc(F)cc2)C1)Nc1ccc(N2CCCCCC2)cc1 (stereo not shown) [Example 20, N-[4-(azepan-1-yl)phenyl]-2-[3-(4-fluorophenyl)pyrrolidin-1-yl]acetamide] | 500 to 2000 nM

Row | SMILES | IC50
17 | O=C(CN1CCCC(OCc2ccccc2)C1)Nc1ccc(N2CCCCCC2)cc1 (stereo not shown) [Example 22, N-[4-(azepan-1-yl)phenyl]-2-(3-benzyloxy-1-piperidyl)acetamide] | 500 to 2000 nM
18 | O=C(CCN1CCCCC1)Nc1ccc(N2CCCCCC2)cc1 [Example 23] | 2000 to 10000 nM
19 | CC(C(=O)Nc1ccc(N2CCCCCC2)cc1)N1CCCCC1 (stereo not shown) [Example 24, N-[4-(azepan-1-yl)phenyl]-2-(1-piperidyl)propanamide] | 2000 to 10000 nM
20 | O=C(CN1CCCCC1)Nc1ccc(N2CCCCCC2)nc1 [Example 25, N-[6-(azepan-1-yl)-3-pyridyl]-2-(1-piperidyl)acetamide] | 500 to 2000 nM
21 | O=C(CN1C2CCC1CC2)Nc1ccc(N2CCCCCC2)nc1 [Example 26, 2-(7-azabicyclo[2.2.1]heptan-7-yl)-N-[6-(azepan-1-yl)-3-pyridyl]acetamide] | 500 to 2000 nM
22 | O=C(CNC1CCCCC1)Nc1ccc(N2CCCCCC2)nc1 [Example 27, N-[6-(azepan-1-yl)-3-pyridyl]-2-[cyclohexylamino]acetamide] | 2000 to 10000 nM
23 | CN(CC(=O)Nc1ccc(N2CCCCCC2)nc1)C1CCCCC1 [Example 28] | 2000 to 10000 nM
24 | O=C(CNC1CCCCCC1)Nc1ccc(N2CCCCCC2)nc1 [Example 29, N-[6-(azepan-1-yl)-3-pyridyl]-2-(cycloheptylamino)acetamide] | 500 to 2000 nM
25 | O=C(CNc1ccccc1)Nc1ccc(N2CCCCCC2)nc1 [Example 30, 2-anilino-N-[6-(azepan-1-yl)-3-pyridyl]acetamide] | 500 to 2000 nM
26 | O=C(CNCc1ccccc1)Nc1ccc(N2CCCCCC2)nc1 [Example 31, N-[6-(azepan-1-yl)-3-pyridyl]-2-(benzylamino)acetamide] | 2000 to 10000 nM
27 | O=C(CN1CC2CCC(C2)C1)Nc1ccc(N2CCCCCC2)nc1 [Example 32, 2-(3-azabicyclo[3.2.1]octan-3-yl)-N-[6-(azepan-1-yl)-3-pyridyl]acetamide] | < 500 nM
28 | O=C(CN1CCCCC1)Nc1ccc(N2CCCCCC2)cn1 [Example 34] | 2000 to 10000 nM
29 | O=C(CN1CCCCC1)Nc1cnc(N2CCCCCC2)nc1 [Example 35, N-[2-(azepan-1-yl)pyrimidin-5-yl]-2-(1-piperidyl)acetamide] | 500 to 2000 nM
30 | O=C(CN1CCCCC1)Nc1ccc(N2CCCCCC2)c(F)c1 [Example 36, N-[4-(azepan-1-yl)-3-fluoro-phenyl]-2-(1-piperidyl)acetamide] | < 500 nM
31 | O=C(CN1CCCCC1)Nc1ccc(N2CCCCCC2)cc1F [Example 38, N-4-(azepan-1-yl)-2-fluoro-phenyl1-2-(1-piperidyl)acetamide] | 2000 to 10000 nM
